Assay results published in US20230233569A1 (Revolution Medicines, Inc., priority 2020, published 2023).
“And” between values parts separate entries of the source, which are not always exact repeats. Equal values may be shown once. Read-outs that look alike come from different tables or passages of the source.

How the values were obtained:
[1] = test system: Capan-1 (K-Ras G12V); assay: CellTiter-Glo cell viability assay, 5-day treatment; assay type: cell-based; details: Homo sapiens, CAPAN-1, 120 h, 5-day treatment; read-out: Capan-1 Cell Viability assay data (K-Ras G12V, IC50)
Method in brief: (§1)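 Five-day compound treatment of plated cells; luminescent read after ~30 min at RT. Percent-of-DMSO data fit to a four-parameter logistic model.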

[2] = test system: NCI-H358 (K-Ras G12C); assay: as above; assay type: cell-based; details: Homo sapiens
Method in brief: as §1

[3] = biological target: KRAS G12D (Homo sapiens, UniProt P01116+P62937, G12D); assay: Disruption of BRAF RBD interaction with Ras (FRET / MOA assay, with Cyclophilin A); assay type: biochemical; details: read-out: KRAS G12D FRET data, IC50
Excerpt: (§2) This protocol may also be executed substituting other Ras proteins or nucleotides.
(§3) The purpose of this biochemical assay was to measure the ability of test compounds to facilitate ternary complex formation between a nucleotide-loaded K-Ras isoform and Cyclophilin A; the resulting ternary complex disrupts binding to a BRAF^RBD construct, inhibiting K-Ras signaling through a RAF effector. Data is reported as IC50 values.
(§4) Compound was present in plate wells as a 10-point 3-fold dilution series starting at a final concentration of 30 μM. After incubation at 25° C. for 3 hours, a mixture of Anti-His Eu-W1024 and anti-GST allophycocyanin was then added to assay sample wells at final concentrations of 10 nM and 50 nM, respectively, and the reaction incubated for an additional 1.5 hours. […] Compounds that facilitate disruption of a K-Ras:RAF complex were identified as those eliciting a decrease in the TR-FRET ratio relative to DMSO control wells.
as §3, with “BRAF^RBDD” for “BRAF^RBD”

[4] = biological target: KRAS G12C (Homo sapiens, UniProt P01116+P62937, G12C); assay: as above; assay type: biochemical
Excerpt: as §2, §3, §4
as §3, with “BRAF^RBDD” for “BRAF^RBD”

[5] = biological target: KRAS G12S (Homo sapiens, UniProt P01116+P62937, G12S); assay: as above; assay type: biochemical; details: read-out: KRAS G12S FRET data, IC50
Excerpt: as §2, §3, §4
as §3, with “BRAF^RBDD” for “BRAF^RBD”

[6] = biological target: KRAS G13C (Homo sapiens, UniProt P01116+P62937, G13C); assay: as above; assay type: biochemical
Excerpt: as §2, §3, §4
as §3, with “BRAF^RBDD” for “BRAF^RBD”

[7] = biological target: NRAS G12C (Homo sapiens, UniProt P01111+P62937, G12C); assay: as above; assay type: biochemical; details: NRAS G12C; read-out: NRAS G12C FRET data IC50
Excerpt: as §2, §3, §4
as §3, with “BRAF^RBDD” for “BRAF^RBD”

[8] = biological target: KRAS G13D (Homo sapiens, UniProt P01116+P62937, G13D); assay: as above; assay type: biochemical; details: KRAS G13D; read-out: KRAS G13D FRET data IC50
Excerpt: as §2, §3, §4
as §3, with “BRAF^RBDD” for “BRAF^RBD”

[9] = biological target: KRAS G12V (Homo sapiens, UniProt P01116+P62937, G12V); assay: as above; assay type: biochemical; details: KRAS G12V; read-out: KRAS G12V FRET data IC50
Excerpt: as §2, §3, §4
as §3, with “BRAF^RBDD” for “BRAF^RBD”

[10] = biological target: KRAS WT (Homo sapiens, UniProt P01116+P62937); assay: as above; assay type: biochemical; details: KRAS WT; read-out: KRAS WT FRET data IC50
Excerpt: as §2, §3, §4
as §3, with “BRAF^RBDD” for “BRAF^RBD”

[11] = NCI-H358, 120 h, 5-day treatment, read-out: H358 Cell Viability assay data (K-Ras G12C, IC50)
[12] = read-out: KRAS G12C FRET data, IC50
[13] = read-out: KRAS G13C FRET data, IC50
[14] = NCI-H358, H358, K-Ras G12C, read-out: Additional H358 Cell Viability assay data (K-Ras G12C, IC50)
[15] = KRAS G12C, read-out: KRAS G12C FRET data IC50
[16] = KRAS G13C, read-out: KRAS G13C FRET data IC50

Sequence of KRAS G12D (P01116 1-169 isoform P01116-2 G12D limits assumed): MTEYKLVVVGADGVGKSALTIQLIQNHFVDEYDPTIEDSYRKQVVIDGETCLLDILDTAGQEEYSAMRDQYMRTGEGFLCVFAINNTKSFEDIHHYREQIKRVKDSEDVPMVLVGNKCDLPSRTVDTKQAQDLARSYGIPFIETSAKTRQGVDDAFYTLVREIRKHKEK
Sequence of KRAS G12D (P62937 whole entry): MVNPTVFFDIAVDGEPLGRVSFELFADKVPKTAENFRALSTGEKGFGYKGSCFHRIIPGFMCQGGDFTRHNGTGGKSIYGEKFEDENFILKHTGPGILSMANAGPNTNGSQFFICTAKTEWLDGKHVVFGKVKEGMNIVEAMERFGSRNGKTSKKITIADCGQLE
Sequence of KRAS G12V (P01116 1-169 isoform P01116-2 G12V limits assumed): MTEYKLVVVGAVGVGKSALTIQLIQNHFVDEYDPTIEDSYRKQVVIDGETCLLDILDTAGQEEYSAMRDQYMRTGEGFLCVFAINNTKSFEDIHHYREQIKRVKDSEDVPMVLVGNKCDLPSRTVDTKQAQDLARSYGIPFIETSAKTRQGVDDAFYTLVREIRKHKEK
Sequence of KRAS G12V (P62937 whole entry): as the sequence (P62937 whole entry) above
Sequence of KRAS G13D (P01116 1-169 isoform P01116-2 G13D limits assumed): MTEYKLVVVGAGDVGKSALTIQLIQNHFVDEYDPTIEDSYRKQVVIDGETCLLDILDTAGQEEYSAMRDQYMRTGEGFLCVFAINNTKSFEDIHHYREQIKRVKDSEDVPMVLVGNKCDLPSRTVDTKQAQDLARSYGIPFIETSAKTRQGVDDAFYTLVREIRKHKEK
Sequence of KRAS G13D (P62937 whole entry): as the sequence (P62937 whole entry) above
Sequence of KRAS G13C (P01116 1-169 isoform P01116-2 G13C): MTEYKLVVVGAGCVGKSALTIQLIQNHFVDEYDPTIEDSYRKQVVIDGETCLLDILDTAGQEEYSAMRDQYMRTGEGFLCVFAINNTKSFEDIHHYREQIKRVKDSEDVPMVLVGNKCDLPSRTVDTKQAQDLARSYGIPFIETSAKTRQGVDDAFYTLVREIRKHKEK
Sequence of KRAS G13C (P62937 whole entry): as the sequence (P62937 whole entry) above
Sequence of NRAS G12C (P01111 whole entry G12C): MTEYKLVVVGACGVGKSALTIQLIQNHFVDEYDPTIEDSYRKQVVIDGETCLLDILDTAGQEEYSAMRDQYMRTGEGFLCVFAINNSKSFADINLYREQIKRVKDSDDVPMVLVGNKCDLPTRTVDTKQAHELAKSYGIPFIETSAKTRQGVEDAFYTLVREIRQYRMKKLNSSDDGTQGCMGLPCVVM
Sequence of NRAS G12C (P62937 whole entry): as the sequence (P62937 whole entry) above
Sequence of KRAS G12C (P01116 1-169 isoform P01116-2 G12C): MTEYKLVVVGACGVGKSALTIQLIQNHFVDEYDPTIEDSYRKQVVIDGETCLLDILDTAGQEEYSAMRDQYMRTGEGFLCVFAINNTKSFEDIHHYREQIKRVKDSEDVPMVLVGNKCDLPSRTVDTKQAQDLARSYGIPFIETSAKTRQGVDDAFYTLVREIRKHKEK
Sequence of KRAS G12C (P62937 whole entry): as the sequence (P62937 whole entry) above
Sequence of KRAS G12S (P01116 1-169 isoform P01116-2 G12S limits assumed): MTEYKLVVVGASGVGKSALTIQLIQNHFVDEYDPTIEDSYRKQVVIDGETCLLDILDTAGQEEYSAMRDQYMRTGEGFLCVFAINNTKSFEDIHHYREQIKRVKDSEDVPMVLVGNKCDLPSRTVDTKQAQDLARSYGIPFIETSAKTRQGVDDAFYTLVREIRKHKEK
Sequence of KRAS G12S (P62937 whole entry): as the sequence (P62937 whole entry) above
Sequence of KRAS WT (P01116 1-169 isoform P01116-2 limits assumed): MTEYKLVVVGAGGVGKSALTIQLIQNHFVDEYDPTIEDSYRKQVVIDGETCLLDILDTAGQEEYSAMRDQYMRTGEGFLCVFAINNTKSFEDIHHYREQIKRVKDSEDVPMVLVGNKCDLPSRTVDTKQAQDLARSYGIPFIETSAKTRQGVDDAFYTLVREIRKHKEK
Sequence of KRAS WT (P62937 whole entry): as the sequence (P62937 whole entry) above

| IC50 [2, 11] [nM] | IC50 [3] [nM] | IC50 [4, 12] | IC50 [5] | IC50 [6, 13] | IC50 [7] | IC50 [8] | IC50 [9] | IC50 [10] | SMILES | IC50 [1] [nM] | IC50 [2, 14] [nM] | IC50 [4, 15] [nM] | IC50 [6, 16] [nM] |
| --- | --- | --- | --- | --- | --- | --- | --- | --- | --- | --- | --- | --- | --- |
| 1000 to 10000 | 1000 to 10000 | 100 to 1000 nM | 100 to 1000 nM | 100 to 1000 nM | 100 to 1000 nM | 100 to 1000 nM | 1000 to 10000 nM | 100 to 1000 nM | CCn1c(-c2cnccc2COC)c2c3cc(ccc31)-c1cc(O)cc(c1)C[C@H](NC(=O)[C@H](C(C)C)N(C)C(=O)CN1CCOCC1)C(=O)N1CCC[C@H](N1)C(=O)OCC(C)(C)C2 [Example A65] |  |  |  |  |
| 100 to 1000 | > 10000 | 1000 to 10000 nM and > 10000 nM | 1000 to 10000 nM and > 10000 nM | 1000 to 10000 nM and > 10000 nM | 1000 to 10000 nM and > 10000 nM | 1000 to 10000 nM and > 10000 nM | 1000 to 10000 nM and > 10000 nM | 1000 to 10000 nM and > 10000 nM | CCn1c(-c2cccnc2[C@H](C)OC)c2c3cc(ccc31)-c1csc(n1)C[C@H](NC(=O)[C@H](C(C)C)N(C)C(=O)[C@H]1CCN(C(=O)OC)C1)C(=O)N1CCC[C@H](N1)C(=O)OCC(C)(C)C2 [Example A116] |  |  |  |  |
|  |  |  |  |  |  |  | 10 to 100 nM |  | CCn1c(-c2cccnc2[C@H](C)OC)c2c3cc(ccc31)-c1cc(O)cc(c1)C[C@H](NC(=O)[C@H](C(C)C)N(C)C(=O)C1(F)CC1)C(=O)N1CCC[C@H](N1)C(=O)OCC(C)(C)C2 [Example A165] | 10 to 100 |  |  |  |
|  |  |  |  |  | > 10000 nM |  | > 10000 nM |  | CCn1c(-c2cccnc2[C@H](C)OC)c2c3cc(ccc31)-c1csc(n1)C[C@H](NC(=O)[C@H](C(C)C)N1CCC3(CN(C)C3)C1=O)C(=O)N1CCC[C@H](N1)C(=O)OCC(C)(C)C2 [Example A222] | > 10000 |  |  |  |
| 1000 to 10000 | 1000 to 10000 | 100 to 1000 nM | 100 to 1000 nM | 100 to 1000 nM | 100 to 1000 nM | 100 to 1000 nM | 100 to 1000 nM | 100 to 1000 nM | CCn1c(-c2cccnc2[C@H](C)OC)c2c3cc(ccc31)-c1cc(O)cc(c1)C[C@H](NC(=O)C1CCCC1C(F)F)C(=O)N1CCC[C@H](N1)C(=O)OCC(C)(C)C2 (some centres unmarked) [Example A254] |  |  |  |  |
|  | > 10000 |  | > 10000 nM |  | > 10000 nM | > 10000 nM | > 10000 nM | > 10000 nM | C=CC(=O)N1CC[C@H](C(=O)N(C)[C@H](C(=O)N[C@H]2Cc3nc(cs3)-c3ccc4c(c3)c(c(-c3cccnc3[C@H](C)OC)n4CC)CC(C)(C)CN(C)C[C@@H]3CCCN(N3)C2=O)C(C)C)C1 [Example A287] |  | > 1000 | > 10000 | > 10000 |

Further lines, the compound ahead of its results:

| SMILES | IC50 [2, 11] [nM] | IC50 [3] [nM] | IC50 [4, 12] | IC50 [5] | IC50 [6, 13] | IC50 [7] | IC50 [8] | IC50 [9] | IC50 [10] | IC50 [1] [nM] | IC50 [2, 14] [nM] | IC50 [4, 15] [nM] | IC50 [6, 16] [nM] |
| --- | --- | --- | --- | --- | --- | --- | --- | --- | --- | --- | --- | --- | --- |
| CCn1c(-c2cnccc2COC)c2c3cc(ccc31)-c1cc(O)cc(c1)C[C@H](NC(=O)[C@H](C(C)C)N(C)C(=O)[C@H]1CCN(C(=O)C(C)(C)N(C)C)C1)C(=O)N1CCC[C@H](N1)C(=O)OCC(C)(C)C2 [Example A8] |  |  |  |  |  |  |  |  |  | 1000 to 10000 |  |  |  |
| CCn1c(-c2cccnc2[C@H](C)OC)c2c3cc(ccc31)-c1cccc(c1)C[C@H](NC(=O)[C@H](C(C)C)N(C)C(=O)[C@H]1CCN(C(C)=O)C1)C(=O)N1CCC[C@H](N1)C(=O)OCC(C)(C)C2 [Example A60] | 1000 to 10000 | > 10000 | 1000 to 10000 nM | 1000 to 10000 nM | > 10000 nM | 1000 to 10000 nM | > 10000 nM | 1000 to 10000 nM | 1000 to 10000 nM |  |  |  |  |
| C=CC(=O)N1C[C@@H](C(=O)N(C)[C@H](C(=O)N[C@H]2Cc3cccc(c3)-c3ccc4c(c3)c(c(-c3cccnc3[C@H](C)OC)n4CC)CC(C)(C)COC(=O)[C@@H]3CCCN(N3)C2=O)C(C)C)[C@@H](C(F)(F)F)C1 [Example A401] |  | > 10000 |  | 1000 to 10000 nM |  | 1000 to 10000 nM | 1000 to 10000 nM | 1000 to 10000 nM | 1000 to 10000 nM |  | 100 to 1000 | 1000 to 10000 | 100 to 1000 |
| CCn1c(-c2cc(N3CCN(C)CC3)cnc2[C@H](C)OC)c2c3cc(ccc31)-c1csc(n1)C[C@H](NC(=O)[C@H](C(C)C)N(C)C(=O)N1CC(OC)C1)C(=O)N1CCC[C@H](N1)C(=O)OCC(C)(C)C2 [Example A466] |  |  |  |  |  |  |  |  |  | < 10 |  |  |  |
| CCn1c(-c2cccnc2[C@H](C)OC)c2c3cc(ccc31)-c1csc(n1)C[C@H](NC(=O)[C@H](C(C)C)N(C)C(=O)N1CC(Cc3cnn(C)c3)C1)C(=O)N1CCC[C@H](N1)C(=O)OCC(C)(C)C2 [Example A500] |  |  |  |  |  |  |  |  |  | < 10 |  |  |  |
